Source: article PMC12114839 (2025)

System: c-MYC G4 DNA (Pu27) (DNA, G4) TGAGGGTGGGTAGGGTGGGTAA
Assay: UV-Vis absorbance titration
Conditions: 100 mM K+ (KCl); 10 mM Tris-HCl pH 7.4, 1 mM EDTA, 25 °C; 5 µM DNA, 0-20 µM EGCG; no Kd determined

binding: yes
Compound: O=C(O[C@@H]1Cc2c(O)cc(O)cc2O[C@@H]1c1cc(O)c(O)c(O)c1)c1cc(O)c(O)c(O)c1
